Test results as given in patent US20160102052A1, “Use of Cysteamine in Treating Infections caused by Yeasts/Moulds” (priority 2014, published 2016).

System: Exophiala dermatitidis CA01
Assay: Broth microdilution chequerboard analysis of Lynovex (NM001) in combination with clinical antifungals
Format: cell-based
Settings: for Antifungal MIC100 / Antifungal MIC50: antifungal in isolation; for Antifungal MIC100 / Antifungal MIC100 in Combination: 72 h; for Antifungal MIC100 / Antifungal MIC50 / Antifungal MIC100 in Combination / Antifungal MIC50 in Combination: 35° C.; for FICI: antifungal with Lynovex (NM001), <0.5 Synergy, 0.5-1 Additive, >1 Indifference; for Antifungal MIC100 in Combination / Antifungal MIC50 in Combination: in combination with Lynovex (NM001)
Description: The aim of the experiment was to determine the effect of Lynovex (NM001) on the antifungal drug susceptibility of Exophiala dermatitidis CA01. Microtitre plates were prepared following CLSI recommendations for broth microdilution chequerboard method. These plates contained a serial doubling dilution of Lynovex (NM001) combined with serial doubling dilutions of antifungals drugs; Fluconazole, Itraconazole, Caspofungin and Amphotericin B. […] These were incubated at 35° C. and read at 72 h, 96 h, 120 h and 144 h on the BioTek plate reader. […] Three independent E. dermatitidis CA01 cultures were grown on PDA slope for 6 days at 35° C. • 7. Cultures were removed from incubator. 2 ml sterile 0.15M NaCl added to the overnight culture and cells harvested from the surface of the agar. Cells placed in fresh bijou tube. • 8. The cultures were allowed to rest for up to 10 minutes, allowing any hyphae to settle to the bottom. The top layer of conidia was removed into fresh bijou. Hyphae were discarded. • 9. […] This is continued to F12 where 100 μl is removed and discarded. • f. This dilution series was repeated in rows G-H for the remaining 2 cultures • g. Plate read at OD530 on BioTek • h. […] This preparation step occurs in two parts. First, Lynovex (NM001) and antifungals are serially diluted, down and across microtitre plates, respectively. Equal volumes of Lynovex and antifungal are then combined in a fresh microtitre plate, prior to inoculation. […] Stock solutions of Lynovex and antifungals were prepared at 4× desired concentrations. The plate layout at the end of this protocol is the final concentration in the plate following the combination of Lynovex and antifungals and the addition of the inocula. […] All other wells contain 150 μl sterile dH2O. • 9. Serial doubling dilutions are carried out from A to B whereby 150 μl is removed from A and placed into B and mixed well. Then take 150 μl B and place in C and mix well. This is repeated down to row G where the final 150 μl is discarded. […] The same procedure is repeated for the other 4 antifungals, carrying the dilutions across the plate i.e. […] At the final dilution in column 10, the final 150 μl is discarded. […] Inoculating Plates with E. dermatitidis CA01 • 6. Add 100 μl (total volume 200 μl) of the prepared E. dermatitidis CA01 culture to the all wells on the plate except wells H12. […] H12 will contain 100 μl water and 100 μl 2×RPMI-1640 alone, constituting an uninoculated control. • 8. The plate is read in the BioTek at OD530. • 9. Plates are then placed in a plastic box containing a Petri dish of water, sealed and incubated at 35° C. The presence of the water in the dish or on the tissue provides and environment of relatively high humidity. • 10. OD530 is then read at 72 h, 96 h, 120 h and 144 h and raw data processed using Microsoft Excel. • 11. Fractional Inhibitory Concentration (FIC) Index values are generated using MIC100 for 72 h data and MIC50 for later time points using the following formula: […]

SMILES: C[C@@H]1[C@H](O)[C@@H](C)/C=C/C=C/C=C/C=C/C=C/C=C/C=C/[C@H](O[C@@H]2O[C@H](C)[C@@H](O)[C@H](N)[C@@H]2O)C[C@@H]2O[C@](O)(C[C@@H](O)C[C@@H](O)[C@H](O)CC[C@@H](O)C[C@@H](O)CC(=O)O[C@H]1C)C[C@H](O)[C@H]2C(=O)O [Amphotericin B]
- Antifungal MIC100 (GEOMEAN): 0.59 µg/mL
- Antifungal MIC50 (GEOMEAN, 96 h): 0.47 µg/mL
- Antifungal MIC50 (GEOMEAN, 120 h): 0.47 µg/mL
- Antifungal MIC50 (GEOMEAN, 144 h): 0.59 µg/mL
- FICI (GEOMEAN, MIC50, 96 h): 0.63 (2)
- FICI (GEOMEAN, MIC50, 120 h): 0.58 (3)
- FICI (GEOMEAN, MIC50, 144 h): 0.75 (2)
- FICI (GEOMEAN, MIC100, 72 h): 0.53 (1)
- Antifungal MIC100 in Combination (GEOMEAN): 0.23 µg/mL
- Antifungal MIC50 in Combination (GEOMEAN, 96 h): 0.17 µg/mL
- Antifungal MIC50 in Combination (GEOMEAN, 120 h): 0.19 µg/mL
- Antifungal MIC50 in Combination (GEOMEAN, 144 h): 0.23 µg/mL
- Antifungal MIC100 (MEAN): 0.86 µg/mL
- Antifungal MIC50 (MEAN, 96 h): 0.47 µg/mL
- Antifungal MIC50 (MEAN, 120 h): 0.47 µg/mL
- Antifungal MIC50 (MEAN, 144 h): 0.63 µg/mL
- FICI (MEAN, MIC50, 96 h): 0.64 (2)
- FICI (MEAN, MIC50, 120 h): 0.59 (3)
- FICI (MEAN, MIC50, 144 h): 0.75 (2)
- FICI (MEAN, MIC100, 72 h): 0.53 (1)
- Antifungal MIC100 in Combination (MEAN): 0.23 µg/mL
- Antifungal MIC50 in Combination (MEAN, 96 h): 0.18 µg/mL
- Antifungal MIC50 in Combination (MEAN, 120 h): 0.20 µg/mL
- Antifungal MIC50 in Combination (MEAN, 144 h): 0.23 µg/mL
- Antifungal MIC100 (Range): 0.23 to 1.88 µg/mL
- Antifungal MIC50 (Range, 96 h): 0.47 µg/mL
- Antifungal MIC50 (Range, 120 h): 0.5 µg/mL
- Antifungal MIC50 (Range, 144 h): 0.47 to 0.94 µg/mL
- Antifungal MIC100 in Combination (Range): 0.23 µg/mL
- Antifungal MIC50 in Combination (Range, 96 h): 0.12 to 0.23 µg/mL
- Antifungal MIC50 in Combination (Range, 120 h): 0.12 to 0.23 µg/mL
- Antifungal MIC50 in Combination (Range, 144 h): 0.23 µg/mL
